# Results published in ChEMBL document CHEMBL5131424, “Synthesis and evaluation of antibacterial and trypanocidal activity of derivatives of monensin A” (Bioorg Med Chem Lett, 2022).
# How the values were obtained:
# [1] = tested on: Staphylococcus epidermidis; test: Potency index, ratio of ciprofloxacin MIC to test compound MIC for antibacterial activity against Staphylococcus epidermidis 825/19; type: functional
# [2] = (§1) Cytotoxicity against human HL-60 cells assessed as reduction in cell viability measured after 24 hrs by resazurin dye based assay; type: toxicity; details: HL-60 cells
# [3] = tested on: HL-60; test: as §1; type: toxicity; details: hl-60, 24 h
# [4] = tested on: Staphylococcus epidermidis; test: Potency index, ratio of ciprofloxacin MIC to test compound MIC for antibacterial activity against Staphylococcus epidermidis 830/19; type: functional
# [5] = tested on: Escherichia coli; test: Antibacterial activity against Escherichia coli ATCC 25922; type: functional
# [6] = tested on: Staphylococcus epidermidis; test: Antibacterial activity against Staphylococcus epidermidis 840/19; type: functional
# [7] = tested on: Escherichia coli; test: Antibacterial activity against Escherichia coli NCTC 10538; type: functional
# [8] = tested on: Pseudomonas aeruginosa; test: Antibacterial activity against Pseudomonas aeruginosa ATCC 15442; type: functional
# [9] = Selectivity ratio of MIC for cytotoxicity against human HL-60 cells to MIC for antitrypanosomal activity against bloodstream form of Trypanosoma brucei clone 427-221a; type: toxicity, cell-based
# [10] = tested on: Staphylococcus aureus; test: Antibacterial activity against Staphylococcus aureus ATCC 25923; type: functional
# [11] = tested on: Staphylococcus epidermidis; test: Antibacterial activity against Staphylococcus epidermidis 848/19; type: functional
# [12] = tested on: Pseudomonas aeruginosa; test: Antibacterial activity against Pseudomonas aeruginosa […]; type: functional
# [13] = tested on: Staphylococcus epidermidis; test: Antibacterial activity against Staphylococcus epidermidis 830/19; type: functional
# [14] = tested on: Staphylococcus epidermidis; test: Antibacterial activity against Staphylococcus epidermidis ATCC 12228; type: functional
# [15] = tested on: Staphylococcus aureus; test: Antibacterial activity against Staphylococcus aureus NCTC 4163; type: functional
# [16] = tested on: Staphylococcus aureus; test: Antibacterial activity against Staphylococcus aureus ATCC 6538; type: functional
# [17] = tested on: Staphylococcus epidermidis; test: Antibacterial activity against Staphylococcus epidermidis 845/19; type: functional
# [18] = tested on: Trypanosoma brucei; test: Antitrypanosomal activity against bloodstream form of Trypanosoma brucei clone 427-221a measured after 24 hrs by resazurin dye based assay; type: functional
# [19] = tested on: Staphylococcus epidermidis; test: Potency index, ratio of ciprofloxacin MIC to test compound MIC for antibacterial activity against Staphylococcus epidermidis 845/19; type: functional
# [20] = tested on: Staphylococcus epidermidis; test: Antibacterial activity against Staphylococcus epidermidis 825/19; type: functional
# [21] = tested on: Staphylococcus epidermidis; test: Antibacterial activity against Staphylococcus epidermidis 851/19; type: functional
# [22] = tested on: Staphylococcus epidermidis; test: Antibacterial activity against Staphylococcus epidermidis 834/19; type: functional
# [23] = tested on: Staphylococcus aureus; test: Antibacterial activity against Staphylococcus aureus ATCC 29213; type: functional
# [24] = tested on: Staphylococcus epidermidis; test: Antibacterial activity against Staphylococcus epidermidis ATCC 35984; type: functional
# [25] = tested on: Staphylococcus epidermidis; test: Antibacterial activity against Staphylococcus epidermidis 829/19; type: functional
# [26] = Selectivity ratio of GI50 for cytotoxicity against human HL-60 cells to GI50 for antitrypanosomal activity against bloodstream form of Trypanosoma brucei clone 427-221a; type: toxicity, cell-based; details: read-out: RatioGI50
Compound,GI50 at 24 h [2],MIC [3],MIC [5],MIC [6],MIC [7],MIC [8],selectivity ratio [9],MIC [10],MIC [11],MIC [12],MIC [13],MIC [14],MIC [15],MIC [16],MIC [17],GI50 [18],MIC [18],MIC [20],MIC [21],MIC [22],other results
CO[C@H]([C@H](C)[C@H]1O[C@@]2(CC[C@@](C)([C@H]3CC[C@@](CO)([C@@H]4O[C@@H]([C@H]5O[C@@](O)(COC(=O)Nc6ccccc6)[C@H](C)C[C@@H]5C)C[C@@H]4C)O3)O2)C[C@H](O)[C@H]1C)[C@H](C)C(=O)O,8.94 µM,100 µM,> 256 µg/mL,0.5 µg/mL,> 256 µg/mL,> 256 µg/mL,100,0.25 µg/mL,0.5 µg/mL,> 256 µg/mL,0.25 µg/mL,0.25 µg/mL,0.25 µg/mL,0.25 µg/mL,0.5 µg/mL,0.27 µM,1 µM,0.25 µg/mL,0.5 µg/mL,0.5 µg/mL,Ratio [1]: <=256; Ratio [4]: <=256; Ratio [19]: <=256; MIC [23]: 0.25 µg/mL; MIC [24]: 0.5 µg/mL; MIC [25]: 0.25 µg/mL; selectivity ratio [26]: 33.1
CO[C@H]([C@H](C)[C@H]1O[C@@]2(CC[C@@](C)([C@H]3CC[C@@](CO)([C@@H]4O[C@@H]([C@H]5O[C@@](O)(COC(=O)NCCCl)[C@H](C)C[C@@H]5C)C[C@@H]4C)O3)O2)C[C@H](O)[C@H]1C)[C@H](C)C(=O)O,22.4 µM,100 µM,> 256 µg/mL,4 µg/mL,> 256 µg/mL,> 256 µg/mL,10,2 µg/mL,4 µg/mL,> 256 µg/mL,4 µg/mL,2 µg/mL,2 µg/mL,4 µg/mL,4 µg/mL,3.48 µM,10 µM,2 µg/mL,4 µg/mL,4 µg/mL,MIC [23]: 2 µg/mL; MIC [24]: 8 µg/mL; MIC [25]: 4 µg/mL; selectivity ratio [26]: 6.4
